Laboratory results from publication PMC9697818, “Design, Synthesis and Biological Assessment of Rhodanine-Linked Benzenesulfonamide Derivatives as Selective and Potent Human Carbonic Anhydrase Inhibitors” (Molecules, 2022).

Key:
Assay in all cases: stopped-flow CO2 hydration assay
Assay type in all cases: biochemical
hCA XII = target: T1, hCA XII (Homo sapiens, UniProt O43570)
T1 construct: gene CA12; recombinant, tumor-associated transmembrane isoform
Method in brief: (§1)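 Inhibition of recombinant human carbonic anhydrase isozymes was measured by stopped-flow following the enzyme-catalysed CO2 hydration for 5–10 s. Assays used 0.2 mM Phenol Red read at 557 nm, 10 mM Hepes (pH 7.4), 10 mM NaClO4, CO2-saturated water at 25 °C as substrate and 5–12 nM enzyme, with inhibitor preincubated with enzyme for 10 min at room temperature. Inhibitor stocks of 10 mM in DMSO-water 1:1 were diluted down to 0.01 nM in assay buffer, using at least seven concentrations. Inhibition constants (Ki) came from non-linear least-squares fitting with the Cheng–Prusoff equation and are means of at least three determinations.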

hCA I = target: T2, hCA I (Homo sapiens, UniProt P00915)
T2 construct: gene CA1; recombinant, cytosolic isoform
T2 sequence (P00915 2-261): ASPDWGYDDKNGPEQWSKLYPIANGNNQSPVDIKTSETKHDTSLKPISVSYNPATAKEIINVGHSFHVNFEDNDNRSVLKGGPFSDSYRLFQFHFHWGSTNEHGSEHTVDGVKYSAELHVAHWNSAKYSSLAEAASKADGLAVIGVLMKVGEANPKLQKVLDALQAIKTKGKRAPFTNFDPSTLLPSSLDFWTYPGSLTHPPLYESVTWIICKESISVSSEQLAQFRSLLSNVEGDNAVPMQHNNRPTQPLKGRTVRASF
Method in brief: as §1

hCA IX = target: T3, hCA IX (Homo sapiens, UniProt Q16790)
T3 construct: gene CA9; recombinant, tumor-associated transmembrane isoform
Method in brief: as §1

hCA II = target: T4, hCA II (Homo sapiens, UniProt P00918)
T4 construct: gene CA2; recombinant, cytosolic isoform
Method in brief: as §1

T1 sequence (O43570 30-289 limits assumed): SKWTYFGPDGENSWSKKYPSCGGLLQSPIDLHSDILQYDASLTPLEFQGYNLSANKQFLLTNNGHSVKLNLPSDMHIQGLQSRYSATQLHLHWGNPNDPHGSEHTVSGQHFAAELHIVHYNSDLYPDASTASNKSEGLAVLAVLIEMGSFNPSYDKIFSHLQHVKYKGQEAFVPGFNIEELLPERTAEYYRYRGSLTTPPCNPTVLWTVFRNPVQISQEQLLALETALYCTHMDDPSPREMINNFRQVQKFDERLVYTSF

| Compound | Ki (hCA XII) | Ki (hCA I) | Ki (hCA IX) | Ki (hCA II) |
| --- | --- | --- | --- | --- |
| CCOc1cc(/C=C2/SC(=S)N(CC(=O)Nc3ccc(S(N)(=O)=O)cc3)C2=O)ccc1O [7h, (E)-2-(5-(3-Ethoxy-4-hydroxybenzylidene)-4-oxo-2-thioxothiazolidin-3-yl)-N-(4-sulfamoylphenyl)acetamide] | 0.0637 µM | 0.0224 µM | 0.0056 µM | 0.0073 µM |
| NS(=O)(=O)c1ccc(NC(=O)CN2C(=O)/C(=C\c3ccc(OC(F)(F)F)cc3)SC2=S)cc1 [7c, (E)-2-(4-Oxo-2-thioxo-5-(4-(trifluoromethoxy)benzylidene)thiazolidin-3-yl)-N-(4-sulfamoylphenyl)acetamide] | 0.158 µM | 2.41 µM | 0.0097 µM | 0.954 µM |
| COc1cc(/C=C2/SC(=S)N(CC(=O)Nc3ccc(S(N)(=O)=O)cc3)C2=O)cc(OC)c1O [7t, (E)-2-(5-(4-Hydroxy-3,5-dimethoxybenzylidene)-4-oxo-2-thioxothiazolidin-3-yl)-N-(4-sulfamoylphenyl)acetamide] | 0.0302 µM | 0.0775 µM | 0.0072 µM | 0.0096 µM |
| C=CCOc1ccc(/C=C2/SC(=S)N(CC(=O)Nc3ccc(S(N)(=O)=O)cc3)C2=O)cc1 [7f, (E)-2-(5-(4-(Allyloxy)benzylidene)-4-oxo-2-thioxothiazolidin-3-yl)-N-(4-sulfamoylphenyl)acetamide] | 0.0676 µM | 0.688 µM | 0.0056 µM | 0.32 µM |
| COc1cc(/C=C2/SC(=S)N(CC(=O)Nc3ccc(S(N)(=O)=O)cc3)C2=O)cc(OC)c1OC [7g, (E)-2-(4-Oxo-2-thioxo-5-(3,4,5-trimethoxybenzylidene)thiazolidin-3-yl)-N-(4-sulfamoylphenyl)acetamide] | 0.046 µM | 0.173 µM | 0.0042 µM | 0.0316 µM |
| NS(=O)(=O)c1ccc(NC(=O)CN2C(=O)/C(=C\c3ccc([N+](=O)[O-])cc3)SC2=S)cc1 [7u, (E)-2-(5-(4-Nitrobenzylidene)-4-oxo-2-thioxothiazolidin-3-yl)-N-(4-sulfamoylphenyl)acetamide] | 0.0095 µM | 0.0706 µM | 0.0077 µM | 0.0089 µM |
| COc1ccc(/C=C2/SC(=S)N(CC(=O)Nc3ccc(S(N)(=O)=O)cc3)C2=O)c(OC)c1 [7p, (E)-2-(5-(2,4-Dimethoxybenzylidene)-4-oxo-2-thioxothiazolidin-3-yl)-N-(4-sulfamoylphenyl)acetamide] | 0.0098 µM | 0.386 µM | 0.0177 µM | 0.008 µM |
| COc1cc(OC)c(/C=C2/SC(=S)N(CC(=O)Nc3ccc(S(N)(=O)=O)cc3)C2=O)c(OC)c1 [7q, (E)-2-(4-Oxo-2-thioxo-5-(2,4,6-trimethoxybenzylidene)thiazolidin-3-yl)-N-(4-sulfamoylphenyl)acetamide] | 0.0263 µM | 0.298 µM | 0.0236 µM | 0.0531 µM |
| NS(=O)(=O)c1ccc(NC(=O)CN2C(=O)/C(=C\c3ccc(C(F)(F)F)cc3)SC2=S)cc1 [7e, (E)-2-(4-Oxo-2-thioxo-5-(4-(trifluoromethyl)benzylidene)thiazolidin-3-yl)-N-(4-sulfamoylphenyl)acetamide] | 0.0096 µM | 0.854 µM | 0.008 µM | 0.0775 µM |
| NS(=O)(=O)c1ccc(NC(=O)CN2C(=O)/C(=C3/C(=O)Nc4ccc(C(F)(F)F)cc43)SC2=S)cc1 [9c, (Z)-2-(4-Oxo-5-(2-oxo-5-(trifluoromethyl)indolin-3-ylidene)-2-thioxothiazolidin-3-yl)-N-(4-sulfamoylphenyl)acetamide] | 0.0378 µM | 0.319 µM | 0.0133 µM | 0.0678 µM |
| NS(=O)(=O)c1ccc(NC(=O)CN2C(=O)/C(=C3/C(=O)Nc4ccc(Cl)cc43)SC2=S)cc1 [9d, (Z)-2-(5-(5-Chloro-2-oxoindolin-3-ylidene)-4-oxo-2-thioxothiazolidin-3-yl)-N-(4-sulfamoylphenyl)acetamide] | 0.0263 µM | 0.0358 µM | 0.006 µM | 0.0052 µM |
| NS(=O)(=O)c1ccc(NC(=O)CN2C(=O)/C(=C3/C(=O)Nc4ccccc43)SC2=S)cc1 [9a, (Z)-2-(4-Oxo-5-(2-oxoindolin-3-ylidene)-2-thioxothiazolidin-3-yl)-N-(4-sulfamoylphenyl)acetamide] | 0.0562 µM | 0.0416 µM | 0.0047 µM | 0.0043 µM |
| Cc1ccc2c(c1)/C(=C1/SC(=S)N(CC(=O)Nc3ccc(S(N)(=O)=O)cc3)C1=O)C(=O)N2 [9b, (Z)-2-(5-(5-Methyl-2-oxoindolin-3-ylidene)-4-oxo-2-thioxothiazolidin-3-yl)-N-(4-sulfamoylphenyl)acetamide] | 0.0406 µM | 0.0922 µM | 0.0089 µM | 0.0055 µM |
| COc1cc(OC)c(OC)cc1/C=C1/SC(=S)N(CC(=O)Nc2ccc(S(N)(=O)=O)cc2)C1=O [7o, (E)-2-(4-Oxo-2-thioxo-5-(2,4,5-trimethoxybenzylidene)thiazolidin-3-yl)-N-(4-sulfamoylphenyl)acetamide] | 0.0095 µM | 0.339 µM | 0.0347 µM | 0.176 µM |
| CC(C)c1ccc(/C=C2/SC(=S)N(CC(=O)Nc3ccc(S(N)(=O)=O)cc3)C2=O)cc1 [7l, (E)-2-(5-(4-Isopropylbenzylidene)-4-oxo-2-thioxothiazolidin-3-yl)-N-(4-sulfamoylphenyl)acetamide] | 0.0416 µM | 0.43 µM | 0.0515 µM | 0.0686 µM |
| COc1ccc(/C=C2/SC(=S)N(CC(=O)Nc3ccc(S(N)(=O)=O)cc3)C2=O)cc1OC [7n, (E)-2-(5-(3,4-Dimethoxybenzylidene)-4-oxo-2-thioxothiazolidin-3-yl)-N-(4-sulfamoylphenyl)acetamide] | 0.0385 µM | 0.084 µM | 0.0081 µM | 0.0154 µM |

Second part, the compound after the results:

| Ki (hCA XII) | Ki (hCA I) | Ki (hCA IX) | Ki (hCA II) | Compound |
| --- | --- | --- | --- | --- |
| 0.0736 µM | 0.228 µM | 0.0158 µM | 0.0461 µM | COc1cccc(/C=C2/SC(=S)N(CC(=O)Nc3ccc(S(N)(=O)=O)cc3)C2=O)c1 [7j, (E)-2-(5-(3-Methoxybenzylidene)-4-oxo-2-thioxothiazolidin-3-yl)-N-(4-sulfamoylphenyl)acetamide] |
| 0.0582 µM | 0.0786 µM | 0.0093 µM | 0.0127 µM | COc1ccc(/C=C2/SC(=S)N(CC(=O)Nc3ccc(S(N)(=O)=O)cc3)C2=O)cc1 [7k, (E)-2-(5-(4-Methoxybenzylidene)-4-oxo-2-thioxothiazolidin-3-yl)-N-(4-sulfamoylphenyl)acetamide] |
| 0.047 µM | 0.471 µM | 0.0282 µM | 0.0555 µM | NS(=O)(=O)c1ccc(NC(=O)CN2C(=O)/C(=C\c3cccc(Oc4ccccc4)c3)SC2=S)cc1 [7m, (E)-2-(4-Oxo-5-(3-phenoxybenzylidene)-2-thioxothiazolidin-3-yl)-N-(4-sulfamoylphenyl)acetamide] |
| 0.0096 µM | 0.213 µM | 0.0135 µM | 0.0196 µM | NS(=O)(=O)c1ccc(NC(=O)CN2C(=O)/C(=C\c3ccc(F)c(F)c3)SC2=S)cc1 [7r, (E)-2-(5-(3,4-Difluorobenzylidene)-4-oxo-2-thioxothiazolidin-3-yl)-N-(4-sulfamoylphenyl)acetamide] |
| 0.009 µM | 0.125 µM | 0.0073 µM | 0.0566 µM | N#Cc1ccc(/C=C2/SC(=S)N(CC(=O)Nc3ccc(S(N)(=O)=O)cc3)C2=O)cc1 [7i, (E)-2-(5-(4-Cyanobenzylidene)-4-oxo-2-thioxothiazolidin-3-yl)-N-(4-sulfamoylphenyl)acetamide] |
| 0.0091 µM | 0.349 µM | 0.0357 µM | 0.0516 µM | NS(=O)(=O)c1ccc(NC(=O)CN2C(=O)/C(=C\c3ccc(Cl)cc3)SC2=S)cc1 [7b, (E)-2-(5-(4-Chlorobenzylidene)-4-oxo-2-thioxothiazolidin-3-yl)-N-(4-sulfamoylphenyl)acetamide] |
| 0.0325 µM | 0.185 µM | 0.0087 µM | 0.0692 µM | NS(=O)(=O)c1ccc(NC(=O)CN2C(=O)/C(=C\c3ccccc3)SC2=S)cc1 [7a, (E)-2-(5-Benzylidene-4-oxo-2-thioxothiazolidin-3-yl)-N-(4-sulfamoylphenyl)-acetamide] |
| 0.0654 µM | 0.224 µM | 0.0143 µM | 0.14 µM | NS(=O)(=O)c1ccc(NC(=O)CN2C(=O)/C(=C\c3ccccc3F)SC2=S)cc1 [7d, (E)-2-(5-(2-Fluorobenzylidene)-4-oxo-2-thioxothiazolidin-3-yl)-N-(4-sulfamoylphenyl)acetamide] |
| 0.009 µM | 0.0779 µM | 0.0084 µM | 0.0146 µM | NS(=O)(=O)c1ccc(NC(=O)CN2C(=O)/C(=C\c3cccc([N+](=O)[O-])c3)SC2=S)cc1 [7s, (E)-2-(5-(3-Nitrobenzylidene)-4-oxo-2-thioxothiazolidin-3-yl)-N-(4-sulfamoylphenyl)acetamide] |
